Test results published in US5382593A, “New 3-(hydroxybenzylidenyl)-indolin-2-ones” (Adir et Compagnie, priority 1992, dated 1995).

Tests used:
[1] = test system: lipoxygenase, human polynuclear cells; assay: Inhibition of LTB4 production (lipoxygenase) by human polynuclear cells activated by calcium ionophore A 23187; format: cell-based; details: concentration of 10^-5 M
Procedure: The production of the principal prostanoid, resulting from lipoxygenase, produced by human polynuclear cells: leucotriene B4 (LTB4) is measured by a radioimmunological assay.

[2] = test system: cyclooxygenase of human granulocytes; assay: Inhibition of PGE2 secretion (cyclooxygenase) by human granulocytes stimulated by calcium ionophore A23187; format: cell-based; details: concentration of 10^-5 M, A23187 5×10^-6 M, read-out: inhibition of the production of PGE2
Text: The aim of this study is to measure the inhibiting activity of the compounds of the invention on the secretion of prostaglandin E2 (PGE2), one of the principal prostanoids produced by the cyclooxygenase of human granulocytes stimulated by the calcium ionophore A23187.
Human venous blood from blood donors who have not taken medicaments for 2 weeks is drawn into polypropylene tubes containing 1 volume of anti-coagulant (2.73% citric acid, 4.48% sodium citrate, 2% glucose) per 10 volumes of blood.
In the hour following taking the samples, 6% dextran is added to the blood (0.3 cm^3 /cm^3 of blood). After incubation for 30 min. at 37° C., the plasma rich in white corpuscles is centrifuged at a speed of 100 g for 5 min. at 4° C. […]
After centrifugation at a speed of 420 g for 30 min. at 4° C., the sediment rich in granulocytes is resuspended in 5 cm^3 of phosphate buffer and centrifuged at a speed of 100 g for 5 min. at 4° C. Finally, the granulocytes are counted and the density is adjusted to 3×10^6 cells/cm^3 of phosphate buffer.
The cells (3×10^6 cells/cm^3) are preincubated at 37° C. for 15 min. in the absence or presence of the products to be tested at the desired concentration. […] The base level is measured using cells without either the products to be tested or A23187. […]
The quantity of PGE2 produced is measured by a radioimmunological assay (RIA). […]

Q: Which inhibition at 10 µM [1] does the source give for CC(C)(Sc1cc(C(C)(C)C)c(O)c(C(C)(C)C)c1)Sc1cc(C(C)(C)C)c(O)c(C(C)(C)C)c1 [probucol] here?
A: ~40%

Q: And the inhibition at 10 µM [2]?
A: ~40%
